Test results as given in patent US10793568B2, “Hormone receptor modulators for treating metabolic conditions and disorders” (ARDELYX, INC., priority 2016, dated 2020).

Experiments:
[1] = target: human Farnesoid X receptor ligand-binding domain/Gal4 DNA binding domain chimera (Homo sapiens (Human), UniProt Q96RI1); experiment: Cell-based assay of FXR activation (FXR-UAS-bla HEK 293T beta-lactamase reporter); details: cellular FXR beta-lactamase reporter assay; for Emax: HEK-293T, extent of activation relative to GW4064, read-out: % Efficacy; for EC50: FXR-UAS-bla HEK 293T cells, 16 h, pEC50 = -log EC50
Description: FXR activation was measured using a cell line and procedure obtained from Life Technologies (Cat # K1691). FXR-UAS-bla HEK 293T cells contain a human Farnesoid X receptor ligand-binding domain/Gal4 DNA binding domain chimera stably integrated into the CellSensor® UAS-bla HEK 293T cell line. The CellSensor® UAS-bla HEK 293T contains a beta-lactamase reporter gene under control of a UAS response element stably integrated into HEK 293T cells. Activation of FXR by bound ligands results in transcriptional activation of the beta-lactamase reporter gene, which is detected via assay of beta-lactamase activity.
Cells are harvested and diluted into assay medium containing phenol red-free DMEM supplemented with 2% Charcoal-stripped FBS, pyruvate, non-essential amino acids. Cells are then transferred to a 384 well assay plate. Test compounds are dissolved in DMSO and a 3-fold serial dilution series is generated, then further diluted into assay medium. Compounds in assay medium are added to cells in the 384 well plate and allowed to incubate 16 h at 37 C in the presence of 5% CO2.
A FRET-based […] is loaded into cells as its acetomethoxy ester. Intracellular esterases liberate free CCF4, a cephalosporin core linking 7-hydroxycoumarin to fluorescein. In the presence of beta-lactamase activity produced in the presence of FXR agonists, cleavage of CCF4 spatially separates the two dyes and disrupts FRET, so that exciting the coumarin at 409 nm now produces a blue fluorescence signal at 447 nm. The change in FRET signal is plotted against the test compound concentration and fit to a 3-parameter logistical equation. The concentration required to produce 50% activation is expressed as pEC50 (−log EC50), and the extent of activation is expressed relative to GW4064 as % activation.

[2] = target: ligand binding domain of human FXR (Homo sapiens (Human), UniProt Q96RI1); experiment: FXR ligand binding assay (LanthaScreen TR-FRET, SRC2-2 peptide recruitment); details: for pEC50 / EC50: -log EC50, concentration required to produce 50% activation; for Emax: extent of activation relative to GW4064, read-out: % Efficacy
Chain of ligand binding domain of human FXR (Q96RI1 262-486): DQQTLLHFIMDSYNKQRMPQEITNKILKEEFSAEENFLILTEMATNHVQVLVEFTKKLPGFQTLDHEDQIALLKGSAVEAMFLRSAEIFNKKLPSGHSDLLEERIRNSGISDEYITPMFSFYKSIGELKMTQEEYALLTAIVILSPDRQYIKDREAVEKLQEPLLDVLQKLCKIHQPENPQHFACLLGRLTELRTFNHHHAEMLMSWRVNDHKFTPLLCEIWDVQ

Chain of human Farnesoid X receptor ligand-binding domain/Gal4 DNA binding domain chimera (Q96RI1 262-486, stated change not applied): as the sequence (Q96RI1 262-486) above
Chain of human Farnesoid X receptor ligand-binding domain/Gal4 DNA binding domain chimera (P04386 1-147 partner): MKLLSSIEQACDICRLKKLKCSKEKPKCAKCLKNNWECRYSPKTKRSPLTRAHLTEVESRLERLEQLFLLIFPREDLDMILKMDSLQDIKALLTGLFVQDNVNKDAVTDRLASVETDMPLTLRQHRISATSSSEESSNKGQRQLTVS

Row | SMILES | Emax [1] | EC50 [1] | pEC50 [2] | Emax [2] | EC50 [2]
1 | O=C(O)c1cc(OCC(F)(F)F)c2nc(N3C[C@@H]4C[C@H]3C[C@H]4OCc3c(-c4c(Cl)cccc4Cl)noc3C3CC3)sc2c1 [Compound I-17, 2-[(1S,4S,5R)-5-{[5-cyclopropyl-3-(2,6-dichlorophenyl)-1,2-oxazol-4-yl]methoxy}-2-azabicyclo[2.2.1]heptan-2-yl]-4-(2,2,2-trifluoroethoxy)-1,3-benzothiazole-6-carboxylic acid] | 102% | 0.1 nM | 8.2 | 162% | 
2 | CCOc1cc(C(=O)O)cc2sc(N3C[C@@H]4C[C@H]3C[C@H]4OCc3c(-c4c(Cl)cccc4Cl)noc3C3CC3)nc12 [Compound I-18, 2-[(1S,4S,5R)-5-{[5-cyclopropyl-3-(2,6-dichlorophenyl)-1,2-oxazol-4-yl]methoxy}-2-azabicyclo[2.2.1]heptan-2-yl]-4-ethoxy-1,3-benzothiazole-6-carboxylic acid] | 109% | 0.1 nM | 8.8 | 135% | 
3 | O=C(O)c1cc(F)c2nc(N3C[C@@H]4C[C@H]3C[C@H]4OCc3c(-c4ccccc4C(F)(F)F)noc3C3CC3)sc2c1 [Compound I-19, 2-[(1S,4S,5R)-5-([5-cyclopropyl-3-[2-(trifluoromethyl)phenyl]-1,2-oxazol-4-yl]methoxy)-2-azabicyclo[2.2.1]heptan-2-yl]-4-fluoro-1,3-benzothiazole-6-carboxylic Acid] | 114% | 2 nM | 8 | 178% | 
4 | O=C(O)c1cc(OC(F)(F)F)c2nc(N3C[C@@H]4C[C@H]3C[C@H]4OCc3c(-c4ccccc4C(F)(F)F)noc3C3CC3)sc2c1 [Compound I-20, 2-[(1S,4S,5R)-5-({5-cyclopropyl-3-[2-(trifluoromethyl)phenyl]-1,2-oxazol-4-yl}methoxy)-2-azabicyclo[2.2.1]heptan-2-yl]-4-(trifluoromethoxy)-1,3-benzothiazole-6-carboxylic Acid] | 113% | 0.631 nM | 8.4 | 191% | 
5 | O=C(O)c1cc(F)c2nc(N3C[C@@H]4C[C@H]3C[C@H]4OCc3c(C4CCCCC4)noc3C3CC3)sc2c1 [Compound I-21, 2-[(1S,4S,5R)-5-[(3-cyclohexyl-5-cyclopropyl-1,2-oxazol-4-yl)methoxy]-2-azabicyclo[2.2.1]heptan-2-yl]-4-fluoro-1,3-benzothiazole-6-carboxylic Acid] | 110% | 79.4 nM |  | 123% | 100 nM
6 | O=C(O)c1cc(OC(F)(F)F)c2nc(N3C[C@@H]4C[C@H]3C[C@H]4OCc3c(C4CCCCC4)noc3C3CC3)sc2c1 [Compound I-22, 2-[(1S,4S,5R)-5-[(3-cyclohexyl-5-cyclopropyl-1,2-oxazol-4-yl)methoxy]-2-azabicyclo[2.2.1]heptan-2-yl]-4-(trifluoromethoxy)-1,3-benzothiazole-6-carboxylic Acid] | 113% | 126 nM |  | 85% | 316 nM
7 | O=C(O)c1cc(OC(F)(F)F)c2nc(N3C[C@@H]4C[C@H]3C[C@H]4OCc3c(C4CCOCC4)noc3C3CC3)sc2c1 [Compound I-23, 2-[(1S,4S,5R)-5-{[5-cyclopropyl-3-(oxan-4-yl)-1,2-oxazol-4-yl]methoxy}-2-azabicyclo[2.2.1]heptan-2-yl]-4-(trifluoromethoxy)-1,3-benzothiazole-6-carboxylic Acid] | 100% | 631 nM | 5.5 | 85% | 
8 | O=C(O)c1cc(F)c2nc(N3C[C@@H]4C[C@H]3C[C@H]4OCc3c(-c4c(Cl)cccc4Cl)noc3C3(F)CC3)sc2c1 [Compound I-24, 2-[(1S,4S,5R)-5-{[3-(2,6-dichlorophenyl)-5-(1-fluorocyclopropyl)-1,2-oxazol-4-yl]methoxy}-2-azabicyclo[2.2.1]heptan-2-yl]-4-fluoro-1,3-benzothiazole-6-carboxylic Acid] | 102% | 0.631 nM | 7.9 | 180% | 
9 | O=C(O)c1cc(OC(F)(F)F)c2nc(N3C[C@@H]4C[C@H]3C[C@H]4OCc3c(-c4c(Cl)cccc4Cl)noc3C3(F)CC3)sc2c1 [Compound I-25, 2-[(1S,4S,5R)-5-{[3-(2,6-dichlorophenyl)-5-(1-fluorocyclopropyl)-1,2-oxazol-4-yl]methoxy}-2-azabicyclo[2.2.1]heptan-2-yl]-4-(trifluoromethoxy)-1,3-benzothiazole-6-carboxylic Acid] | 102% | 0.398 nM | 8.4 | 172% | 
10 | Fc1cc(-c2nn[nH]n2)cc2sc(N3C[C@@H]4C[C@H]3C[C@H]4OCc3c(-c4c(Cl)cccc4Cl)noc3C3CC3)nc12 [Compound I-26, 2-[(1S,4S,5R)-5-{[5-cyclopropyl-3-(2,6-dichlorophenyl)-1,2-oxazol-4-yl]methoxy}-2-azabicyclo[2.2.1]heptan-2-yl]-4-fluoro-6-(2H-1,2,3,4-tetrazol-5-yl)-1,3-benzothiazole] | 106% | 25.1 nM | 8.4 | 137% | 
11 | FC(F)(F)Oc1cc(-c2nn[nH]n2)cc2sc(N3C[C@@H]4C[C@H]3C[C@H]4OCc3c(-c4c(Cl)cccc4Cl)noc3C3CC3)nc12 [Compound I-27, 2-[(1S,4S,5R)-5-{[5-cyclopropyl-3-(2,6-dichlorophenyl)-1,2-oxazol-4-yl]methoxy}-2-azabicyclo[2.2.1]heptan-2-yl]-4-trifluoromethoxy-6-(2H-1,2,3,4-tetrazol-5-yl)-1,3-benzothiazole] | 94% | 2 nM |  | 130% | 
12 | CS(=O)(=O)NC(=O)c1cc(F)c2nc(N3C[C@@H]4C[C@H]3C[C@H]4OCc3c(-c4c(Cl)cccc4Cl)noc3C3CC3)sc2c1 [Compound I-28, 2-[(1S,4S,5R)-5-{[5-cyclopropyl-3-(2,6-dichlorophenyl)-1,2-oxazol-4-yl]methoxy}-2-azabicyclo[2.2.1]heptan-2-yl]-4-fluoro-N-methanesulfonyl-1,3-benzothiazole-6-carboxamide] | 122% | 2 nM | 8.9 | 153% | 
13 | CCCS(=O)(=O)NC(=O)c1cc(F)c2nc(N3C[C@@H]4C[C@H]3C[C@H]4OCc3c(-c4c(Cl)cccc4Cl)noc3C3CC3)sc2c1 [Compound I-29, 2-[(1S,4S,5R)-5-{[5-cyclopropyl-3-(2,6-dichlorophenyl)-1,2-oxazol-4-yl]methoxy}-2-azabicyclo[2.2.1]heptan-2-yl]-4-fluoro-N-(propane-1-sulfonyl)-1,3-benzothiazole-6-carboxamide] | 118% | 1.58 nM | 7.8 | 194% | 
14 | O=C(NS(=O)(=O)C1CC1)c1cc(F)c2nc(N3C[C@@H]4C[C@H]3C[C@H]4OCc3c(-c4c(Cl)cccc4Cl)noc3C3CC3)sc2c1 [Compound I-30, N-(cyclopropanesulfonyl)-2-[(1S,4S,5R)-5-{[5-cyclopropyl-3-(2,6-dichlorophenyl)-1,2-oxazol-4-yl]methoxy}-2-azabicyclo[2.2.1]heptan-2-yl]-4-fluoro-1,3-benzothiazole-6-carboxamide] | 114% | 2.51 nM | 8.6 | 160% | 
15 | CS(=O)(=O)NC(=O)c1cc(F)c2nc(N3C[C@@H]4C[C@H]3C[C@H]4OC(=O)c3c(-c4c(Cl)cccc4Cl)noc3C3CC3)sc2c1 [Compound I-31, (1S,4S,5R)-2-[4-fluoro-6-(methanesulfonylcarbamoyl)-1,3-benzothiazol-2-yl]-2-azabicyclo[2.2.1]heptan-5-yl 5-cyclopropyl-3-(2,6-dichlorophenyl)-1,2-oxazole-4-carboxylate] | 115% | 158 nM | 7.4 | 117% | 
16 | CCCS(=O)(=O)NC(=O)c1cc(F)c2nc(N3C[C@@H]4C[C@H]3C[C@H]4OC(=O)c3c(-c4c(Cl)cccc4Cl)noc3C3CC3)sc2c1 [Compound I-32, (1S,4S,5R)-2-{4-fluoro-6-[(propane-1-sulfonyl)carbamoyl]-1,3-benzothiazol-2-yl}-2-azabicyclo[2.2.1]heptan-5-yl 5-cyclopropyl-3-(2,6-dichlorophenyl)-1,2-oxazole-4-carboxylate] | 110% | 126 nM | 7.6 | 148% | 
17 | O=C(NS(=O)(=O)C1CC1)c1cc(F)c2nc(N3C[C@@H]4C[C@H]3C[C@H]4OC(=O)c3c(-c4c(Cl)cccc4Cl)noc3C3CC3)sc2c1 [Compound I-33, (1S,4S,5R)-2-{6-[(cyclopropanesulfonyl)carbamoyl]-4-fluoro-1,3-benzothiazol-2-yl}-2-azabicyclo[2.2.1]heptan-5-yl 5-cyclopropyl-3-(2,6-dichlorophenyl)-1,2-oxazole-4-carboxylate] | 112% | 126 nM | 7.6 | 136% | 
